From PubChem BioAssay AID2060907 (Molecular Pharmacology Branch, DTP, NCI, 2025)

System: 388556-164-R-J1-PDC complex spheroid viability
Experiment: Anticancer human tumor 388556-164-R-J1-PDC patient-derived colon adenocarcinoma cell line growth inhibition [RAS]
Conditions: for IC50: curve of first compound; for viability, T/C: stronger effect = lower value
How it was run: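 Tumour cells grown as complex spheroids with HUVEC endothelial cells and mesenchymal stem cells, treated with RAS pathway inhibitor combinations. Each agent spans half-log steps from near clinical Cmax, or 10 microM where Cmax is unknown.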
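Also: spheroids exposed to compound for 7 days before readout.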
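For viability, T/C in this document: 100% = DMSO vehicle control luminescence.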

CC(=O)OC12COC1CC(O)C1(C)C(=O)C(O)C3=C(C)C(OC(=O)C(O)C(NC(=O)OC(C)(C)C)c4ccccc4)CC(O)(C(OC(=O)c4ccccc4)C21)C3(C)C (centres undefined) + CCn1c(-c2cccnc2C(C)OC)c2c3cc(ccc31)N1CCOC(CC(NC(=O)C(C(C)C)N(C)C(=O)C3(F)CCN(C(=O)C#CC(C)(C)N(C)C)CC3)C(=O)N3CCCC(N3)C(=O)OCC(C)(C)C2)C1
IC50 (second compound 0.000949 µM): > 10000 nM
IC50 (second compound 0.003 µM): > 10000 nM
IC50 (second compound 0.00949 µM): > 10000 nM
IC50 (second compound 0.03 µM): > 10000 nM
IC50 (second compound 0.0949 µM): > 10000 nM
IC50 (second compound 0.3 µM): > 10000 nM
viability, T/C (second compound 0.000949 µM, first compound 0.0316 µM): 86%
viability, T/C (second compound 0.000949 µM, first compound 0.1 µM): 83.4%
viability, T/C (second compound 0.000949 µM, first compound 0.316 µM): 70.5%
viability, T/C (second compound 0.000949 µM, first compound 1 µM): 73.7%
viability, T/C (second compound 0.000949 µM, first compound 3.16 µM): 80.7%
viability, T/C (second compound 0.000949 µM, first compound 10 µM): 74.7%
viability, T/C (second compound 0.003 µM, first compound 0.0316 µM): 92.2%
viability, T/C (second compound 0.003 µM, first compound 0.1 µM): 78.8%
viability, T/C (second compound 0.003 µM, first compound 0.316 µM): 79%
viability, T/C (second compound 0.003 µM, first compound 1 µM): 76%
viability, T/C (second compound 0.003 µM, first compound 3.16 µM): 75.1%
viability, T/C (second compound 0.003 µM, first compound 10 µM): 74.4%
viability, T/C (second compound 0.00949 µM, first compound 0.0316 µM): 86%
viability, T/C (second compound 0.00949 µM, first compound 0.1 µM): 83.4%
viability, T/C (second compound 0.00949 µM, first compound 0.316 µM): 76.6%
viability, T/C (second compound 0.00949 µM, first compound 1 µM): 75%
viability, T/C (second compound 0.00949 µM, first compound 3.16 µM): 79.4%
viability, T/C (second compound 0.00949 µM, first compound 10 µM): 71%
viability, T/C (second compound 0.03 µM, first compound 0.0316 µM): 95.5%
viability, T/C (second compound 0.03 µM, first compound 0.1 µM): 81.7%
viability, T/C (second compound 0.03 µM, first compound 0.316 µM): 70.7%
viability, T/C (second compound 0.03 µM, first compound 1 µM): 71.7%
viability, T/C (second compound 0.03 µM, first compound 3.16 µM): 79.1%
viability, T/C (second compound 0.03 µM, first compound 10 µM): 74.2%
viability, T/C (second compound 0.0949 µM, first compound 0.0316 µM): 80.7%
viability, T/C (second compound 0.0949 µM, first compound 0.1 µM): 79.2%
viability, T/C (second compound 0.0949 µM, first compound 0.316 µM): 81.8%
viability, T/C (second compound 0.0949 µM, first compound 1 µM): 76.3%
viability, T/C (second compound 0.0949 µM, first compound 3.16 µM): 78%
viability, T/C (second compound 0.0949 µM, first compound 10 µM): 69.6%
viability, T/C (second compound 0.3 µM, first compound 0.0316 µM): 79.7%
viability, T/C (second compound 0.3 µM, first compound 0.1 µM): 70.3%
viability, T/C (second compound 0.3 µM, first compound 0.316 µM): 71.3%
viability, T/C (second compound 0.3 µM, first compound 1 µM): 73.8%
viability, T/C (second compound 0.3 µM, first compound 3.16 µM): 71.4%
viability, T/C (second compound 0.3 µM, first compound 10 µM): 69%

CCc1c2c(nc3ccc(O)cc13)-c1cc3c(c(=O)n1C2)COC(=O)[C@]3(O)CC + CCn1c(-c2cccnc2C(C)OC)c2c3cc(ccc31)N1CCOC(CC(NC(=O)C(C(C)C)N(C)C(=O)C3(F)CCN(C(=O)C#CC(C)(C)N(C)C)CC3)C(=O)N3CCCC(N3)C(=O)OCC(C)(C)C2)C1
IC50 (second compound 0.000949 µM): 68 nM
IC50 (second compound 0.003 µM): 74.5 nM
IC50 (second compound 0.00949 µM): 72 nM
IC50 (second compound 0.03 µM): 86.1 nM
IC50 (second compound 0.0949 µM): 69.5 nM
IC50 (second compound 0.3 µM): 46.7 nM
viability, T/C (second compound 0.000949 µM, first compound 0.000949 µM): 107%
viability, T/C (second compound 0.000949 µM, first compound 0.003 µM): 98.7%
viability, T/C (second compound 0.000949 µM, first compound 0.00949 µM): 87.1%
viability, T/C (second compound 0.000949 µM, first compound 0.03 µM): 62.1%
viability, T/C (second compound 0.000949 µM, first compound 0.0949 µM): 45.8%
viability, T/C (second compound 0.000949 µM, first compound 0.3 µM): 32.1%
viability, T/C (second compound 0.003 µM, first compound 0.000949 µM): 111%
viability, T/C (second compound 0.003 µM, first compound 0.003 µM): 88.7%
viability, T/C (second compound 0.003 µM, first compound 0.00949 µM): 83.6%
viability, T/C (second compound 0.003 µM, first compound 0.03 µM): 61.4%
viability, T/C (second compound 0.003 µM, first compound 0.0949 µM): 47.3%
viability, T/C (second compound 0.003 µM, first compound 0.3 µM): 29.1%
viability, T/C (second compound 0.00949 µM, first compound 0.000949 µM): 104%
viability, T/C (second compound 0.00949 µM, first compound 0.003 µM): 96.5%
viability, T/C (second compound 0.00949 µM, first compound 0.00949 µM): 83.8%
viability, T/C (second compound 0.00949 µM, first compound 0.03 µM): 63.6%
viability, T/C (second compound 0.00949 µM, first compound 0.0949 µM): 46.2%
viability, T/C (second compound 0.00949 µM, first compound 0.3 µM): 31.1%
viability, T/C (second compound 0.03 µM, first compound 0.000949 µM): 106%
viability, T/C (second compound 0.03 µM, first compound 0.003 µM): 96.8%
viability, T/C (second compound 0.03 µM, first compound 0.00949 µM): 78.2%
viability, T/C (second compound 0.03 µM, first compound 0.03 µM): 65.5%
viability, T/C (second compound 0.03 µM, first compound 0.0949 µM): 52.7%
viability, T/C (second compound 0.03 µM, first compound 0.3 µM): 27%
viability, T/C (second compound 0.0949 µM, first compound 0.000949 µM): 93.3%
viability, T/C (second compound 0.0949 µM, first compound 0.003 µM): 90%
viability, T/C (second compound 0.0949 µM, first compound 0.00949 µM): 80.4%
viability, T/C (second compound 0.0949 µM, first compound 0.03 µM): 63.7%
viability, T/C (second compound 0.0949 µM, first compound 0.0949 µM): 45.3%
viability, T/C (second compound 0.0949 µM, first compound 0.3 µM): 25.5%
viability, T/C (second compound 0.3 µM, first compound 0.000949 µM): 92.4%
viability, T/C (second compound 0.3 µM, first compound 0.003 µM): 89.7%
viability, T/C (second compound 0.3 µM, first compound 0.00949 µM): 72.2%
viability, T/C (second compound 0.3 µM, first compound 0.03 µM): 57.3%
viability, T/C (second compound 0.3 µM, first compound 0.0949 µM): 39.1%
viability, T/C (second compound 0.3 µM, first compound 0.3 µM): 21.4%
